Measurements taken from patent US9079866B2, “Flap modulators” (JANSSEN PHARMACEUTICA NV, priority 2013, dated 2015).
Where two headings read alike, the source gives them in different places.

How the values were obtained:
human FLAP = human FLAP (Homo sapiens (Human), UniProt P20292); assay: FLAP binding assay (HTRF format)
Summary of the method: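 Samples were run in duplicate on each of two assay plates, the results were averaged, and the signal was expressed as an HTRF ratio.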

[1] = test system: leukotriene pathway in human whole blood (LTB4 levels); assay: Human whole blood assay (A23187-stimulated LTB4); format: cell-based; conditions: Homo sapiens, human whole blood diluted 1:1 in RPMI, A23187-stimulated LTB4; read-out: LTB4 IC50 1:1
Summary of the method: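 Single-replicate data from at least one healthy donor: compound pre-incubated 15 min at 37° Celsius in 1:1 RPMI-diluted heparinised blood, followed by 30 min calcium ionophore A23187 (7 μg/mL) challenge at 37° Celsius. LTB4 in plasma quantified by kit; IC50 via 4-parameter equation.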

[2] = human FLAP wild type, HTRF format, average of two plates, duplicates

Sequence of human FLAP (P20292 whole entry): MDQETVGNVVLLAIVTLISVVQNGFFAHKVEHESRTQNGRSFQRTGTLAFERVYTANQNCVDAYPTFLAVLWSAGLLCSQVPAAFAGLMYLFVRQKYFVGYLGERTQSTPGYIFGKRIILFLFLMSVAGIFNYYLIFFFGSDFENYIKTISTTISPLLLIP

Row | Ki (human FLAP; [2]) [nM] | IC50 [1] [nM] | SMILES | Ki (human FLAP; read-out: FLAP Binding wild type HTRF Ki) [nM]
1 | 1 | 26 | Nc1cnc(-c2ccc(-c3ccccc3S(=O)(=O)Nc3ccccc3)cc2F)cn1 [Example 26, 4′-(5-Aminopyrazin-2-yl)-3′-fluoro-N-phenylbiphenyl-2-sulfonamide] | –
2 | 29 | 10000 | CCN1CCCC[C@@H](NS(=O)(=O)c2ccccc2-c2ccc(-c3cnc(N)cn3)c(F)c2)C1=O [Example 27, (S)-4′-(5-Aminopyrazin-2-yl)-N-[(3S)-1-ethyl-2-oxoazepan-3-yl]-3′-fluorobiphenyl-2-sulfonamide] | –
3 | 59 | 30 | CN1CCCC[C@@H](NS(=O)(=O)c2ccccc2-c2ccc(-c3cnc(N)cn3)c(F)c2)C1=O [Example 29, (S)-4′-(5-Aminopyrazin-2-yl)-3′-fluoro-N-[(3S)-1-methyl-2-oxoazepan-3-yl]biphenyl-2-sulfonamide] | –
4 | 4 | 36 | Nc1cnc(-c2ccc(-c3ccccc3S(=O)(=O)Nc3cccnc3)cc2F)cn1 [Example 31, 4′-(5-Aminopyrazin-2-yl)-3′-fluoro-N-pyridin-3-ylbiphenyl-2-sulfonamide] | –
5 | 31 | 334 | CC(C)S(=O)(=O)Nc1ccccc1-c1ccc(-c2cnc(N)cn2)c(F)c1 [Example 34, N-(4′-(5-Aminopyrazin-2-yl)-3′-fluoro-[1,1′-biphenyl]-2-yl)propane-2-sulfonamide] | –
6 | 36 | 94 | CCS(=O)(=O)Nc1ccccc1-c1ccc(-c2cnc(N)cn2)c(F)c1 [Example 35, N-[4′-(5-Aminopyrazin-2-yl)-3′-fluorobiphenyl-2-yl]ethanesulfonamide] | –
7 | 30 | 676 | CC(C)CS(=O)(=O)Nc1ccccc1-c1ccc(-c2cnc(N)cn2)c(F)c1 [Example 37, N-[4′-(5-Aminopyrazin-2-yl)-3′-fluorobiphenyl-2-yl]-2-methylpropane-1-sulfonamide] | –
8 | 33 | 177 | Nc1cnc(-c2ccc(-c3ccccc3NS(=O)(=O)C3CC3)cc2F)cn1 [Example 38, N-(4′-(5-aminopyrazin-2-yl)-3′-fluoro-[1,1′-biphenyl]-2-yl)cyclopropanesulfonamide] | –
9 | 8 | 75 | CCCCCCS(=O)(=O)Nc1ccccc1-c1ccc(-c2cnc(N)cn2)c(F)c1 [Example 39, N-[4′-(5-Aminopyrazin-2-yl)-3′-fluorobiphenyl-2-yl]hexane-1-sulfonamide] | –
10 | 14 | 112 | Nc1cnc(-c2ccc(-c3ccccc3NS(=O)(=O)C3CCC3)cc2F)cn1 [Example 40, N-(4′-(5-Aminopyrazin-2-yl)-3′-fluoro-[1,1′-biphenyl]-2-yl)cyclobutanesulfonamide] | –
11 | 14 | 2690 | Nc1cnc(-c2ccc(-c3ccccc3NS(=O)(=O)C(F)(F)F)cc2F)cn1 [Example 41, [4′-(5-Aminopyrazin-2-yl)-3′-fluorobiphenyl-2-yl]-1,1,1-trifluoromethanesulfonamide] | –
12 | 11 | 149 | CN(C)S(=O)(=O)c1ccccc1-c1ccc(-c2cnc(N)cn2)c(F)c1 [Example 42, 4′-(5-Aminopyrazin-2-yl)-3′-fluoro-N,N-dimethylbiphenyl-2-sulfonamide] | –
13 | 2 | 111 | Nc1cnc(-c2ccc(-c3ccccc3S(=O)(=O)N3CCCCC3)cc2F)cn1 [Example 43, 5-[3-Fluoro-2′-(piperidin-1-ylsulfonyl)biphenyl-4-yl]pyrazin-2-amine] | –
14 | 7 | 58 | Nc1cnc(-c2ccc(-c3ccccc3S(=O)(=O)N3CCOCC3)cc2F)cn1 [Example 44, 5-[3-Fluoro-2′-(morpholin-4-ylsulfonyl)biphenyl-4-yl]pyrazin-2-amine] | –
15 | 3 | 10 | Nc1cnc(-c2ccc(-c3ccccc3S(=O)(=O)N3CCS(=O)(=O)CC3)cc2F)cn1 [Example 45, 5-{2′-[(1,1-Dioxidothiomorpholin-4-yl)sulfonyl]-3-fluorobiphenyl-4-yl}pyrazin-2-amine] | –
16 | 57 | 194 | Nc1cnc(-c2ccc(-c3ccccc3S(=O)(=O)N3CCNCC3)cc2F)cn1 [Example 46, 5-[3-Fluoro-2′-(piperazin-1-ylsulfonyl)biphenyl-4-yl]pyrazin-2-amine] | –
17 | 1 | 17 | CCN(CC)S(=O)(=O)c1ccccc1-c1ccc(-c2cnc(N)cn2)c(F)c1 [Example 47, 4′-(5-Aminopyrazin-2-yl)-N,N-diethyl-3′-fluorobiphenyl-2-sulfonamide] | –
18 | 11 | 158 | Nc1cnc(-c2ccc(-c3ccccc3S(=O)(=O)N3CCCC3)cc2F)cn1 [Example 48, 5-[3-Fluoro-2′-(pyrrolidin-1-ylsulfonyl)biphenyl-4-yl]pyrazin-2-amine] | –

Row | Ki (human FLAP; [2]) [nM] | IC50 [1] [nM] | SMILES | Ki (human FLAP; read-out: FLAP Binding wild type HTRF Ki) [nM]
19 | 2 | 21 | Nc1cnc(-c2ccc(-c3ccccc3S(=O)(=O)N3CCC(F)(F)CC3)cc2F)cn1 [Example 49, 5-{2′-[(4,4-Difluoropiperidin-1-yl)sulfonyl]-3-fluorobiphenyl-4-yl}pyrazin-2-amine] | –
20 | 1 | 15 | Nc1cnc(-c2ccc(-c3ccccc3S(=O)(=O)N3CCCC(F)(F)C3)cc2F)cn1 [Example 50, 5-{2′-[(3,3-Difluoropiperidin-1-yl)sulfonyl]-3-fluorobiphenyl-4-yl}pyrazin-2-amine] | –
21 | 4 | 42 | Nc1cnc(-c2ccc(-c3ccccc3S(=O)(=O)N3CCC(F)(F)C3)cc2F)cn1 [Example 51, 5-{2′-[(3,3-Difluoropyrrolidin-1-yl)sulfonyl]-3-fluorobiphenyl-4-yl}pyrazin-2-amine] | –
22 | 4 | 155 | Nc1cnc(-c2ccc(-c3ccccc3S(=O)(=O)N3CC(F)(F)C3)cc2F)cn1 [Example 52, 5-{2′-[(3,3-Difluoroazetidin-1-yl)sulfonyl]-3-fluorobiphenyl-4-yl}pyrazin-2-amine] | –
23 | 3 | 238 | Nc1cnc(-c2ccc(-c3ccccc3S(=O)(=O)N3CCCCCC3)cc2F)cn1 [Example 53, 5-[2′-(Azepan-1-ylsulfonyl)-3-fluorobiphenyl-4-yl]pyrazin-2-amine] | –
24 | 20 | 23 | CN1CCN(S(=O)(=O)c2ccccc2-c2ccc(-c3cnc(N)cn3)c(F)c2)CC1 [Example 54, 5-{3-Fluoro-2′-[(4-methylpiperazin-1-yl)sulfonyl]biphenyl-4-yl}pyrazin-2-amine] | –
25 | 1 | 1230 | Nc1cnc(-c2ccc(-c3ccccc3S(=O)(=O)N3CCC(O)(C(F)(F)F)CC3)cc2F)cn1 [Example 55, 1-{[4′-(5-Aminopyrazin-2-yl)-3′-fluorobiphenyl-2-yl]sulfonyl}-4-(trifluoromethyl)piperidin-4-ol] | –
26 | 11 | 3520 | CS(=O)(=O)N1CCN(S(=O)(=O)c2ccccc2-c2ccc(-c3cnc(N)cn3)c(F)c2)CC1 [Example 56, 5-(3-Fluoro-2′-{[4-(methylsulfonyl)piperazin-1-yl]sulfonyl}biphenyl-4-yl)pyrazin-2-amine] | –
27 | 15 | 252 | CC(=O)N1CCN(S(=O)(=O)c2ccccc2-c2ccc(-c3cnc(N)cn3)c(F)c2)CC1 [Example 57, 5-{2′-[(4-Acetylpiperazin-1-yl)sulfonyl]-3-fluorobiphenyl-4-yl}pyrazin-2-amine] | –
28 | 5 | 991 | Nc1cnc(-c2ccc(-c3ccccc3S(=O)(=O)N3CCN(C(=O)C4CC4)CC3)cc2F)cn1 [Example 58, 5-(2′-{[4-(Cyclopropylcarbonyl)piperazin-1-yl]sulfonyl}-3-fluorobiphenyl-4-yl)pyrazin-2-amine] | –
29 | 20 | 1020 | Nc1cnc(-c2ccc(-c3ccccc3S(=O)(=O)N3CCN(CCO)CC3)cc2F)cn1 [Example 59, 2-(4-{[4′-(5-Aminopyrazin-2-yl)-3′-fluorobiphenyl-2-yl]sulfonyl}piperazin-1-yl)ethanol] | –
30 | 28 | 464 | Nc1cnc(-c2ccc(-c3ccccc3S(=O)(=O)N3CCN(C4CC4)CC3)cc2F)cn1 [Example 60, 5-{2′-[(4-Cyclopropylpiperazin-1-yl)sulfonyl]-3-fluorobiphenyl-4-yl}pyrazin-2-amine] | –
31 | 2 | 6 | N#CC1CCN(S(=O)(=O)c2ccccc2-c2ccc(-c3cnc(N)cn3)c(F)c2)CC1 [Example 64, 1-{[4′-(5-Aminopyrazin-2-yl)-3′-fluorobiphenyl-2-yl]sulfonyl}piperidine-4-carbonitrile] | –
32 | 49 | 322 | Nc1cnc(-c2ccc(-c3ccccc3S(=O)(=O)N3CCC(N)CC3)cc2F)cn1 [Example 65, 5-{2′-[(4-Aminopiperidin-1-yl)sulfonyl]-3-fluorobiphenyl-4-yl}pyrazin-2-amine] | –
33 | 21 | 69 | Nc1cnc(-c2ccc(-c3ccccc3S(=O)(=O)N3CCNC(=O)C3)cc2F)cn1 [Example 66, 4-{[4′-(5-Aminopyrazin-2-yl)-3′-fluorobiphenyl-2-yl]sulfonyl}piperazin-2-one] | –
34 | 3 | 12 | Nc1cnc(-c2ccc(-c3ccccc3S(=O)(=O)N3CCC(O)CC3)cc2F)cn1 [Example 67, 1-{[4′-(5-Aminopyrazin-2-yl)-3′-fluorobiphenyl-2-yl]sulfonyl}piperidin-4-ol] | –
35 | 1 | 6 | Nc1cnc(-c2ccc(-c3ccccc3S(=O)(=O)N3CCC(CO)CC3)cc2F)cn1 [Example 68, (1-{[4′-(5-Aminopyrazin-2-yl)-3′-fluorobiphenyl-2-yl]sulfonyl}piperidin-4-yl)methanol] | –

Row | SMILES | Ki (human FLAP; [2]) [nM] | IC50 [1] [nM] | Ki (human FLAP; read-out: FLAP Binding wild type HTRF Ki) [nM]
36 | CCCS(=O)(=O)Nc1ccccc1-c1ccc(-c2cnc(N)cn2)c(F)c1 [Example 36, N-[4′-(5-Aminopyrazin-2-yl)-3′-fluorobiphenyl-2-yl]propane-1-sulfonamide] | – | 120 | 10
